Assay results from patent publication US20240041042A1, “1-(PYRIDYL)-5-AZINYLPYRAZOLE DERIVATIVES, AND THEIR USE FOR CONTROL OF UNDESIRED PLANT GROWTH” (Bayer Aktiengesellschaft, priority 2020, published 2024).
Read-outs that look alike come from different tables or passages of the source.

Key:
Format in all cases: in vivo
Lolium rigidum (LOLRI) = test: Pre-emergence herbicidal action against LOLRI
How it was run: (§1)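 Greenhouse pot trial: seeds sown, soil-covered, sprayed before emergence with compound in water (0.5% additive; 600 l/ha; ≤320 g/ha). Scoring visual, ~3 weeks, 0–100% scale vs untreated.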

[1] = test system: Pharbitis purpurea (PHBPU); test: Pre-emergence herbicidal action against PHBPU
How it was run: as §1

Oryza sativa (ORYSA) [2] = conditions: crop plant compatibility; for Pre-emergence action against ORYSA: 20 g/ha, effect vs untreated controls
How it was run: (§2)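 Scoring: visual, % of untreated control, about 3 weeks after a pre-emergence application to the soil surface. Application used WP or EC formulations diluted in water with 0.5% additive at 600 l/ha; dosage levels are marked by suffixes a, b and c.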

Zea mays (ZEAMX) = conditions: 20 g/ha; crop plant compatibility, effect vs untreated controls
How it was run: as §2

[3] = test system: Abutilon theophrasti (ABUTH); test: Post-emergence herbicidal action against ABUTH; conditions: visual rating about 3 weeks after treatment vs untreated controls (100% = plants have died, 0% = like control plants)
How it was run: (§3)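 Post-emergence greenhouse spray, one-leaf stage, 600 l/ha water plus 0.5% additive; WP or EC formulations; application rates 320 g/ha or lower. Visual % damage vs untreated controls at ~3 weeks.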

[4] = test system: Digitaria sanguinalis (DIGSA); test: Pre-emergence herbicidal action against DIGSA
How it was run: as §1

[5] = test system: Digitaria sanguinalis (DIGSA); test: Post-emergence herbicidal action against DIGSA; conditions: visual rating about 3 weeks after treatment
How it was run: as §3

[6] = test system: Abutilon theophrasti (ABUTH); test: Pre-emergence herbicidal action against ABUTH; conditions: 100% = plants have died
How it was run: as §1

Oryza sativa (ORYSA) [7] = conditions: crop plant compatibility
How it was run: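 Visual rating (% effect vs. untreated plants; 100% = plant death) made about 3 weeks after treatment. Plants had been sprayed at one-leaf stage, 2–3 weeks post-sowing, with aqueous WP/EC preparations containing 0.5% additive, 600 l/ha water volume; a, b, c mark dose levels.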

[8] = 80 g/ha, visual scoring after about 3 weeks vs untreated controls
[9] = Dosage column 320 g/ha (title prints 3200 g/ha), scored visually after about 3 weeks
[10] = 80 g/ha, effect in comparison to untreated controls

Compound | Pre-emergence action against ORYSA (Oryza sativa (ORYSA) [2]) [%] | Pre-emergence action against ZEAMX (Zea mays (ZEAMX)) [%] | Post-emergence action against ORYSA in % (Oryza sativa (ORYSA) [7]; [10]) [%] | Post-emergence action against ORYSA in % (Oryza sativa (ORYSA) [7]; 20 g/ha, effect vs untreated controls) [%] | Post-emergence action against ORYSA in % (Oryza sativa (ORYSA) [7]; 320 g/ha, effect in comparison to untreated controls) [%] | Pre-emergence action against ORYSA in % (Oryza sativa (ORYSA) [2]; pre-emergence, 80 g/ha, in comparison to untreated controls) [%] | Pre-emergence action against LOLRI in % (Lolium rigidum (LOLRI); dosage 80 g/ha) [%] | Pre-emergence action against LOLRI in % (Lolium rigidum (LOLRI); dosage 320 g/ha) [%] | Pre-emergence action against PHBPU in % ([1]; dosage 320 g/ha) [%] | Post-emergence action against ABUTH in % ([3]; 80 g/ha) [%] | Post-emergence action against ABUTH in % ([3]; 320 g/ha) [%] | Pre-emergence action against DIGSA in % [4, 8] [%] | Pre-emergence action against DIGSA in % ([4]; dosage 320 g/ha) [%] | Post-emergence action against DIGSA in % ([5]; 80 g/ha) [%] | Post-emergence action against DIGSA in % ([5]; 320 g/ha) [%] | Pre-emergence action against ABUTH [6, 9] [%] | Pre-emergence action against PHBPU in % ([1]; dosage 80 g/ha) [%] | Pre-emergence action against ABUTH ([6]; 80 g/ha, scored visually after about 3 weeks vs untreated controls, 0% = like control plants) [%]
CCOC(=O)COc1nn(-c2ccccn2)c(-c2ccc(F)nc2)c1Br [Example I-02] | 0 | 0 | – | – | – | – | 90 | 100 | 90 | 80 | 80 | – | – | – | – | – | – | –
O=C(O)COc1nn(-c2nc(F)ccc2F)c(-c2cncc(F)c2)c1C1CC1 [Example I-148] | – | – | – | – | – | – | 90 | 100 | 90 | – | – | 90 | 100 | 80 | 90 | – | – | –
COC(=O)[C@@H](C)Oc1nn(-c2ncccc2F)c(-c2ccc(F)nc2)c1C1CC1 [Example I-307] | – | – | – | – | – | – | 100 | 100 | 90 | – | 90 | – | – | – | – | 80 | – | –
COC(=O)[C@@H](C)Oc1nn(-c2ccccn2)c(-c2cncc(F)c2)c1Cl [Example I-189] | – | – | – | – | – | – | 100 | 100 | 90 | – | – | – | – | – | – | 90 | 90 | 80
CCOC(=O)COc1nn(-c2ccccn2)c(-c2ccc(F)nc2)c1Cl [Example I-85] | – | – | – | – | – | – | – | 100 | 100 | 90 | 90 | – | – | – | – | – | 90 | –

More lines, main results first:

Pre-emergence action against ORYSA (Oryza sativa (ORYSA) [2]) [%] | Pre-emergence action against ZEAMX (Zea mays (ZEAMX)) [%] | Post-emergence action against ORYSA in % (Oryza sativa (ORYSA) [7]; [10]) [%] | Post-emergence action against ORYSA in % (Oryza sativa (ORYSA) [7]; 20 g/ha, effect vs untreated controls) [%] | Post-emergence action against ORYSA in % (Oryza sativa (ORYSA) [7]; 320 g/ha, effect in comparison to untreated controls) [%] | Pre-emergence action against ORYSA in % (Oryza sativa (ORYSA) [2]; pre-emergence, 80 g/ha, in comparison to untreated controls) [%] | Compound | Pre-emergence action against LOLRI in % (Lolium rigidum (LOLRI); dosage 80 g/ha) [%] | Pre-emergence action against LOLRI in % (Lolium rigidum (LOLRI); dosage 320 g/ha) [%] | Pre-emergence action against PHBPU in % ([1]; dosage 320 g/ha) [%] | Post-emergence action against ABUTH in % ([3]; 80 g/ha) [%] | Post-emergence action against ABUTH in % ([3]; 320 g/ha) [%] | Pre-emergence action against DIGSA in % [4, 8] [%] | Pre-emergence action against DIGSA in % ([4]; dosage 320 g/ha) [%] | Post-emergence action against DIGSA in % ([5]; 80 g/ha) [%] | Post-emergence action against DIGSA in % ([5]; 320 g/ha) [%] | Pre-emergence action against ABUTH [6, 9] [%] | Pre-emergence action against PHBPU in % ([1]; dosage 80 g/ha) [%] | Pre-emergence action against ABUTH ([6]; 80 g/ha, scored visually after about 3 weeks vs untreated controls, 0% = like control plants) [%]
– | – | 0 | – | – | – | COC(=O)C(C)COC(=O)C(C)Oc1nn(-c2ccccn2)c(-c2ccc(F)nc2)c1Cl (stereo not shown) [Example I-291] | 90 | 100 | 80 | – | 80 | 100 | 100 | – | – | – | – | –
20 | 10 | 10 | 0 | – | – | COC(=O)COc1nn(-c2ncccc2F)c(-c2cncc(F)c2)c1Br [Example I-16] | 90 | 100 | 80 | – | – | 100 | 100 | – | – | – | – | –
– | – | 10 | – | 20 | – | O=C(O)COc1nn(-c2ccccn2)c(-c2cncnc2)c1Br [Example I-66] | 80 | 100 | – | – | 80 | 100 | 100 | – | 90 | – | – | –
– | – | 10 | – | – | 20 | CCOC(=O)COc1nn(-c2nc(F)ccc2F)c(-c2cncc(F)c2)c1Br [Example I-193] | – | 90 | 90 | 80 | 80 | – | – | – | – | – | 80 | –
